Results published in patent publication US20260216349A1, “STABILIZED BIOPOLYMER COMPOSITION, THEIR MANUFACTURE AND USE” (BASE SE, priority 2023, published 2026).

Settings: pH 7.4
Procedure: A 10% (m/m) aqueous solution of the test substances (butronics as well as reference materials Kolliphor EL and HS15) is prepared in phosphate buffer pH 7.4. For each test substance and reference three 5 ml brown glass ampoules with screw caps are filled with 5 g of the prepared aqueous solution.
The respective API (as for example Fenofibrate/Itraconazole/Nilotinib) to be analyzed is then added (about 30 mg-500 mg per 5 g of 10% test substance solution, enough that the added powder doesn't dissolve anymore) in order to obtain a supersaturated solution.
After stirring for 72 h at room temperature, each sample is filtered through a 0.22 μm PVDF filter and the concentration of the respective API in the filtrate is quantified by HPLC.
The average of the 3 replicates per API is calculated and the obtained concentrations are put in relation to Kolliphor EL, which is set to 100%.

## POE sorbitan monooleate [Polysorbate 80]
  Solubilization of small molecules (mean value in %): 96%
